Results taken from patent US20260226493A1, “HERBICIDE RESISTANT PLANTS” (SYNGENTA CROP PROTECTION AG, priority 2023, published 2026).

How the values were obtained:
Test in all cases: BIO3-BIO1 mutant enzyme activity in the presence of herbicide, percentage inhibition (fluorometric DAPA assay)
Assay type in all cases: biochemical
Conditions in all cases: read-out: percentage inhibition
[1] = target: T1, Arabidopsis thaliana BIO3-BIO1 (BioDA) mutants (Arabidopsis thaliana, UniProt B0F481, P508L)
T1 construct: with the predicted N-terminal mitochondrial transit peptide removed; 6xHis-tag (N); thrombin cleavage site (N); made in house; host or cells: E. coli BL21 (DE3) bioA
T1 sequence (B0F481 23-833 P508L): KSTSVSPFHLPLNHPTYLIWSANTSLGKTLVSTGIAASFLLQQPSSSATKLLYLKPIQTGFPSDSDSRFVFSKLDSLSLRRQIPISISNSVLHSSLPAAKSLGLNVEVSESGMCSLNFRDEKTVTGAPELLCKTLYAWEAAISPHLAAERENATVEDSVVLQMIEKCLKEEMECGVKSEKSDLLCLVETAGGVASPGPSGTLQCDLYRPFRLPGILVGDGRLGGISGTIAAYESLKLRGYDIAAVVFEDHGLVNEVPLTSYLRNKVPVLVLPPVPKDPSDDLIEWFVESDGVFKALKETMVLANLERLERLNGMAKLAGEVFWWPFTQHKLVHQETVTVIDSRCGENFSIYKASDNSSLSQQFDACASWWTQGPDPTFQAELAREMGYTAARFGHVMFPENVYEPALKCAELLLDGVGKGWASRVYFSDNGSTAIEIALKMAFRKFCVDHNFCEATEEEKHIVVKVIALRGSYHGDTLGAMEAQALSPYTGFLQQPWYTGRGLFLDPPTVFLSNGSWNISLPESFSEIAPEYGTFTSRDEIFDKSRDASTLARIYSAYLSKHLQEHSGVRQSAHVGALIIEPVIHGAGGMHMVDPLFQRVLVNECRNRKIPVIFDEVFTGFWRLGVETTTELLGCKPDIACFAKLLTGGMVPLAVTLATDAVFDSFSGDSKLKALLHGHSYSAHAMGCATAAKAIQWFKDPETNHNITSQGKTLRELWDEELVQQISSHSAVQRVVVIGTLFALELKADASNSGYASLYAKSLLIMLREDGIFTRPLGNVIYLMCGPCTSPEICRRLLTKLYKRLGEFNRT
Summary of the method: (§1)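 Percentage inhibition compares activity at one of three herbicide concentrations against DMSO, from o-phthalaldehyde-derivatised DAPA fluorescence (ex 410, em 470 nm). Purified N-His BIO3-BIO1 variants (50 nM, E. coli-expressed) saw herbicide 10 min at 20 °C in pH 8.6 EPPS buffer, then 20 μM KAPA plus 100 μM spermidine for 75 min at 20 °C.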

[2] = target: T2, Arabidopsis thaliana BIO3-BIO1 (BioDA) mutants (Arabidopsis thaliana, UniProt B0F481, G608A)
T2 construct: with the predicted N-terminal mitochondrial transit peptide removed; 6xHis-tag (N); thrombin cleavage site (N); made in house; host or cells: E. coli BL21 (DE3) bioA
T2 sequence (B0F481 23-833 G608A): as the sequence (B0F481 23-833 P508L) above, with L486P, G586A counted along it
Summary of the method: as §1

[3] = target: T3, Arabidopsis thaliana BIO3-BIO1 (BioDA) mutants (Arabidopsis thaliana, UniProt B0F481, G513A)
T3 construct: with the predicted N-terminal mitochondrial transit peptide removed; 6xHis-tag (N); thrombin cleavage site (N); made in house; host or cells: E. coli BL21 (DE3) bioA
T3 sequence (B0F481 23-833 G513A): as the sequence (B0F481 23-833 P508L) above, with L486P, G491A counted along it
Summary of the method: as §1

[4] = target: T4, Arabidopsis thaliana BIO3-BIO1 (BioDA) mutants (Arabidopsis thaliana, UniProt B0F481, A609W)
T4 construct: with the predicted N-terminal mitochondrial transit peptide removed; 6xHis-tag (N); thrombin cleavage site (N); made in house; host or cells: E. coli BL21 (DE3) bioA
T4 sequence (B0F481 23-833 A609W): as the sequence (B0F481 23-833 P508L) above, with L486P, A587W counted along it
Summary of the method: as §1

[5] = target: T5, Arabidopsis thaliana BIO3-BIO1 (BioDA) mutants (Arabidopsis thaliana, UniProt B0F481, S704P)
T5 construct: with the predicted N-terminal mitochondrial transit peptide removed; 6xHis-tag (N); thrombin cleavage site (N); made in house; host or cells: E. coli BL21 (DE3) bioA
T5 sequence (B0F481 23-833 S704P): as the sequence (B0F481 23-833 P508L) above, with L486P, S682P counted along it
Summary of the method: as §1

[6] = target: T6, Arabidopsis thaliana BIO3-BIO1 (BioDA) mutants (Arabidopsis thaliana, UniProt B0F481, V354A)
T6 construct: with the predicted N-terminal mitochondrial transit peptide removed; 6xHis-tag (N); thrombin cleavage site (N); made in house; host or cells: E. coli BL21 (DE3) bioA
T6 sequence (B0F481 23-833 V354A): as the sequence (B0F481 23-833 P508L) above, with V332A, L486P counted along it
Summary of the method: as §1

[7] = target: T7, Arabidopsis thaliana BIO3-BIO1 (BioDA) mutants (Arabidopsis thaliana, UniProt B0F481, S509A)
T7 construct: with the predicted N-terminal mitochondrial transit peptide removed; 6xHis-tag (N); thrombin cleavage site (N); made in house; host or cells: E. coli BL21 (DE3) bioA
T7 sequence (B0F481 23-833 S509A): as the sequence (B0F481 23-833 P508L) above, with L486P, S487A counted along it
Summary of the method: as §1

[8] = target: T8, Arabidopsis thaliana BIO3-BIO1 (BioDA) mutants (Arabidopsis thaliana, UniProt B0F481, Y511P)
T8 construct: with the predicted N-terminal mitochondrial transit peptide removed; 6xHis-tag (N); thrombin cleavage site (N); made in house; host or cells: E. coli BL21 (DE3) bioA
T8 sequence (B0F481 23-833 Y511P): as the sequence (B0F481 23-833 P508L) above, with L486P, Y489P counted along it
Summary of the method: as §1

[9] = target: T9, Arabidopsis thaliana BIO3-BIO1 (BioDA) mutants (Arabidopsis thaliana, UniProt B0F481, S509H)
T9 construct: with the predicted N-terminal mitochondrial transit peptide removed; 6xHis-tag (N); thrombin cleavage site (N); made in house; host or cells: E. coli BL21 (DE3) bioA
T9 sequence (B0F481 23-833 S509H): as the sequence (B0F481 23-833 P508L) above, with L486P, S487H counted along it
Summary of the method: as §1

[10] = target: T10, Arabidopsis thaliana BIO3-BIO1 (BioDA) mutants (Arabidopsis thaliana, UniProt B0F481, S509T)
T10 construct: with the predicted N-terminal mitochondrial transit peptide removed; 6xHis-tag (N); thrombin cleavage site (N); made in house; host or cells: E. coli BL21 (DE3) bioA
T10 sequence (B0F481 23-833 S509T): as the sequence (B0F481 23-833 P508L) above, with L486P, S487T counted along it
Summary of the method: as §1

[11] = target: T11, Arabidopsis thaliana BIO3-BIO1 (BioDA) mutants (Arabidopsis thaliana, UniProt B0F481, S509W)
T11 construct: with the predicted N-terminal mitochondrial transit peptide removed; 6xHis-tag (N); thrombin cleavage site (N); made in house; host or cells: E. coli BL21 (DE3) bioA
T11 sequence (B0F481 23-833 S509W): as the sequence (B0F481 23-833 P508L) above, with L486P, S487W counted along it
Summary of the method: as §1

[12] = target: T12, Arabidopsis thaliana BIO3-BIO1 (BioDA) mutants (Arabidopsis thaliana, UniProt B0F481, W392D)
T12 construct: with the predicted N-terminal mitochondrial transit peptide removed; 6xHis-tag (N); thrombin cleavage site (N); made in house; host or cells: E. coli BL21 (DE3) bioA
T12 sequence (B0F481 23-833 W392D): as the sequence (B0F481 23-833 P508L) above, with W370D, L486P counted along it
Summary of the method: as §1

Row | Structure (SMILES) | inhibition at 0.2 µM [5] [%] | inhibition at 1 µM [5] [%] | inhibition at 5 µM [5] [%] | inhibition at 0.2 µM [6] [%] | inhibition at 1 µM [6] [%] | inhibition at 5 µM [6] [%] | inhibition at 0.2 µM [7] [%] | inhibition at 1 µM [7] [%] | inhibition at 5 µM [7] [%] | inhibition at 0.2 µM [8] [%] | inhibition at 1 µM [8] [%] | inhibition at 5 µM [8] [%] | inhibition at 1 µM [9] [%] | inhibition at 1 µM [1] [%] | inhibition at 1 µM [2] [%] | inhibition at 1 µM [10] [%] | inhibition at 1 µM [11] [%] | inhibition at 1 µM [3] [%] | inhibition at 1 µM [12] [%] | inhibition at 1 µM [4] [%] | other results
1 | CCn1c(Cn2ccc(C(F)(F)F)n2)cc(=O)c(C(=O)O)c1-c1ccc(Cl)c(Cl)c1 [Compound L, 2-(3,4-dichlorophenyl)-1-ethyl-4-oxo-6-[[3-(trifluoromethyl)pyrazol-1-yl]methyl]pyridine-3-carboxylic acid] | – | – | – | – | – | – | – | – | – | – | – | – | – | – | – | – | – | – | – | – | inhibition at 0.01 µM [1]: 16%; inhibition at 0.075 µM [1]: 48%; inhibition at 0.5 µM [1]: 80%; inhibition at 0.01 µM [2]: 6%; inhibition at 0.075 µM [2]: 17%; inhibition at 0.5 µM [2]: 68%; inhibition at 0.01 µM [3]: 0%; inhibition at 0.075 µM [3]: 57%; inhibition at 0.5 µM [3]: 90%; inhibition at 0.01 µM [4]: 35%; inhibition at 0.075 µM [4]: 46%; inhibition at 0.5 µM [4]: 66%
2 | CCn1c(C)c(-c2ccc(F)cc2F)c(=O)c(C(=O)O)c1-c1ccc(Cl)c(Cl)c1 [Compound C, 2-(3,4-dichlorophenyl)-5-(2,4-difluorophenyl)-1-ethyl-6-methyl-4-oxo-pyridine-3-carboxylic acid] | 1 | 23 | 60 | 0 | 26 | 75 | 0 | 63 | 95 | 53 | 95 | 99 | 75 | 80 | 42 | 50 | 92 | 63 | 59 | 33 | inhibition at 0.2 µM [9]: 20%; inhibition at 5 µM [9]: 98%; inhibition at 0.2 µM [1]: 37%; inhibition at 5 µM [1]: 92%; inhibition at 0.2 µM [2]: 11%; inhibition at 5 µM [2]: 81%; inhibition at 0.2 µM [10]: 5%; inhibition at 5 µM [10]: 89%; inhibition at 0.2 µM [11]: 14%; inhibition at 5 µM [11]: 103%; inhibition at 0.2 µM [3]: 10%; inhibition at 5 µM [3]: 88%; inhibition at 0.2 µM [12]: 46%; inhibition at 5 µM [12]: 91%; inhibition at 0.2 µM [4]: 21%; inhibition at 5 µM [4]: 38%
3 | CCOC(=O)c1nn(-c2ccc3c(c2)OC(F)(F)C(F)(F)O3)c2cccc(C(C)=O)c2c1=O [Compound A, ethyl 5-acetyl-4-oxo-1-(2,2,3,3-tetrafluoro-1,4-benzodioxin-6-yl)cinnoline-3-carboxylate] | – | 56 | – | – | 9 | – | – | 0 | – | – | 28 | – | 0 | 34 | 10 | 77 | 0 | 64 | 55 | 34 | –
4 | CCn1c(-c2ccc(Cl)c(Cl)c2)c(C(=O)O)c(=O)c2cc(F)ccc21 [Compound M, 2-(3,4-dichlorophenyl)-1-ethyl-6-fluoro-4-oxo-quinoline-3-carboxylic acid] | 0 | 16 | 47 | 6 | 13 | 65 | 0 | 33 | 81 | 48 | 89 | 98 | 82 | 55 | 38 | 69 | 60 | 58 | 37 | 31 | inhibition at 0.2 µM [9]: 23%; inhibition at 5 µM [9]: 98%; inhibition at 0.2 µM [1]: 18%; inhibition at 5 µM [1]: 82%; inhibition at 0.2 µM [2]: 12%; inhibition at 5 µM [2]: 74%; inhibition at 0.2 µM [10]: 9%; inhibition at 5 µM [10]: 95%; inhibition at 0.2 µM [11]: 0%; inhibition at 5 µM [11]: 95%; inhibition at 0.2 µM [3]: 25%; inhibition at 5 µM [3]: 90%; inhibition at 0.2 µM [12]: 14%; inhibition at 5 µM [12]: 81%; inhibition at 0.2 µM [4]: 24%; inhibition at 5 µM [4]: 52%
